Laboratory results as given in patent US20250290117A1, “MOLECULAR PHENOTYPIC ANTIMICROBIAL SUSCEPTIBILITY TESTING” (priority 2024, published 2025).

Legend:
Assay type in all cases: cell-based
Escherichia coli = test: Molecular phenotypic antimicrobial susceptibility test (extraction or DNA purification prior to PCR)
Method: (§1) Detection of Molecular Phenotypic Antimicrobial Susceptibility. Disclosed herein are the methods for the detection of phenotypic antimicrobial susceptibility via molecular methods. The present invention describes how a specimen 100 with a known microbial load is incubated and then exposed to a panel of antimicrobial agents to determine sensitivity (prevention of growth) or resistance (allowance of growth) to the specific antimicrobial agents tested utilizing molecular methods.
(§2) Sample Collection. Specimens 100 are collected from patients using sterile collection processes that are employed in routine clinical care. Specimens are transported to the testing facility in boric acid preservative.
(§3) Preparation of the Specimens for Testing. […] The process for pathogen isolation includes steps of harvesting the pathogen (e.g., via centrifugation), isolating pathogen DNA via a DNA isolation and/or purification kit, and performing PCR on the pathogen DNA via PCR components (e.g., primers, enzymes, buffers) as would be known to the skilled artisan. […] This aliquot is used for antimicrobial susceptibility testing if indicated based on the pathogen detection results. […] Specimens 100 with lower pathogen loads could also be utilized in the antibiotic susceptibility phase of testing with or without a longer incubation period.
(§4) Preparation of Antimicrobial Susceptibility Testing Plates. Antimicrobial solutions are prepared at known concentrations. The specific antimicrobials and their concentrations are selected based on the pathogen of interest and the described antimicrobial resistance breakpoints for that specimen pathogen and antimicrobial combination. These antimicrobials have been selected based on those commonly utilized by healthcare providers in routine clinical care for the specific type of suspected infection. The number and types of antimicrobials utilized can be customized based on the infection source, pathogen detected, patient-specific factors such as allergies or other health conditions (e.g., chronic kidney disease or concurrent medication use), or healthcare provider preferences such as antimicrobial availability or cost.
(§5) The antimicrobial solutions are prepared in liquid culture media (such as Muller Hinton Broth) to achieve the desired antimicrobial concentration and are then stored at −80° C. until use. For a given specimen, each antimicrobial is tested at a single or multiple antimicrobial concentration(s) which is its established breakpoints for sensitivity. The antimicrobial solutions are prepared and plated out for each specific pathogen. […] This allows for evaluation of pathogen load when no antimicrobial is present.
(§6) Specimen Exposure to Antimicrobial Agents. The 1 mL aliquot of the specimen 100 previously mixed with culture media and incubated is obtained. Using optical density measurements as a guide, the specimen 100 is diluted to 0.5 McFarland.
(§7) Antimicrobial exposure plates are typically placed into an incubator for 12-16 hours.
(§8) Nucleic Acid Amplification of Antimicrobial Agent Exposed Pathogens. The antimicrobial exposure plate is removed after the period of incubation. The specimen then undergoes a purification or lysis step. For example, the specimen may undergo a purification step (e.g., magnetic bead-based or other separation protocol to isolate genetic material). In another example, the specimen may undergo a cell lysis step. For example, buffer (e.g., lysis buffer) may be added and incubated in the thermal cycler for preparation for direct PCR. Next, the specimen may undergo a polymerase chain reaction (PCR) testing protocol, whereby a semi-quantitative PCR method is utilized. This may be completed either with or without a specific extraction protocol step. The pathogens can be individually targeted and detected, or a universal genetic sequence can be utilized to detect the antimicrobial susceptibility of the specimen as a whole.

[1] = test system: pathogens of clinical samples; test: Molecular phenotypic antimicrobial susceptibility test of clinical samples, extraction DNA purification step prior to PCR (Table 6)
Method: as §1, §2, §3, §4, §5, §6, §7, §8

[2] = test system: pathogens of clinical samples; test: Molecular phenotypic antimicrobial susceptibility test of clinical samples, direct PCR without a separate DNA purification step (Table 6)
Method: as §1, §2, §3, §4, §5, §6, §7, §8

[3] = E. coli, clinical sample of r10-r24
[4] = E. coli, clinical sample of r158-r172
[5] = E. faecalis, clinical sample of r93-r99
[6] = E. faecalis, clinical sample of r114-r120
[7] = E. faecalis, clinical sample of r151-r157
[8] = K. aerogenes, clinical sample of r136-r150
[9] = K. pneumoniae, clinical sample of r121-r135
[10] = M. morganii, clinical sample of r55-r69
[11] = M. morganii, clinical sample of r70-r84
[12] = P. mirabilis, clinical sample of r25-r39
[13] = P. mirabilis, clinical sample of r40-r54
[14] = S. aureus, clinical sample of r85-r92

C[C@H]1COc2c(N3CCN(C)CC3)c(F)cc3c(=O)c(C(=O)O)cn1c23 [Levofloxacin]
Ct at Sensitive Breakpoint (Escherichia coli; E. coli isolate 1, Ct at control (average) 21.238): 20.768
Molecular Antimicrobial Susceptibility Result (Escherichia coli; E. coli isolate 1, at sensitive breakpoint): Resistant
Ct at Sensitive Breakpoint (Escherichia coli; E. coli isolate 2, Ct at control (average) 21.270): 19.100
Molecular Antimicrobial Susceptibility Result (Escherichia coli; E. coli isolate 2, at sensitive breakpoint): Resistant
Ct at Sensitive Breakpoint (Escherichia coli; E. coli isolate 3, Ct at control (average) 22.0995): 29.342
Molecular Antimicrobial Susceptibility Result (Escherichia coli; E. coli isolate 3, at sensitive breakpoint): Resistant
Ct at Sensitive Breakpoint (Escherichia coli; E. coli isolate 4, Ct at control (average) 17.5733): 17.88
Molecular Antimicrobial Susceptibility Result (Escherichia coli; E. coli isolate 4, at sensitive breakpoint): Resistant
Ct at Sensitive Breakpoint (Escherichia coli; E. coli isolate 5, Ct at control (average) 21.0933): 33.85
Molecular Antimicrobial Susceptibility Result (Escherichia coli; E. coli isolate 5, at sensitive breakpoint): Sensitive (Antimicrobial wells with pathogen load detected below the control wells (typically >2 cycle thresholds later) may be reported as Sensitive)
Molecular Antibiotic Susceptibility Result [1, 3]: Resistant
Ct ([1]; E. coli, clinical sample of r10-r24, Ct Control Avg 18.112): 17.903
Molecular Antibiotic Susceptibility Result [1, 4]: Sensitive (Antimicrobial wells with pathogen load detected below the control wells (typically >2 cycle thresholds later) may be reported as Sensitive)
Ct ([1]; E. coli, clinical sample of r158-r172, Ct Control Avg 20.146): 34.012
Molecular Antibiotic Susceptibility Result [1, 5]: Sensitive (Antimicrobial wells with pathogen load detected below the control wells (typically >2 cycle thresholds later) may be reported as Sensitive)
Ct ([1]; E. faecalis, clinical sample of r93-r99, Ct Control Avg 22.987): 37.857
Ct ([1]; E. faecalis, clinical sample of r100-r106, Ct Control Avg 23.073): 38.337
Ct ([1]; E. faecalis, clinical sample of r107-r113, Ct Control Avg 22.144): 29.347
Molecular Antibiotic Susceptibility Result [1, 6]: Sensitive (Antimicrobial wells with pathogen load detected below the control wells (typically >2 cycle thresholds later) may be reported as Sensitive)
Ct ([1]; E. faecalis, clinical sample of r114-r120, Ct Control Avg 20.822): 32.971
Molecular Antibiotic Susceptibility Result [1, 7]: Sensitive (Antimicrobial wells with pathogen load detected below the control wells (typically >2 cycle thresholds later) may be reported as Sensitive)
Ct ([1]; E. faecalis, clinical sample of r151-r157, Ct Control Avg 20.56): 37.926
Molecular Antibiotic Susceptibility Result [1, 8]: Sensitive (Antimicrobial wells with pathogen load detected below the control wells (typically >2 cycle thresholds later) may be reported as Sensitive)
Ct ([1]; K. aerogenes, clinical sample of r136-r150, Ct Control Avg 19.994): 38.019
Molecular Antibiotic Susceptibility Result [1, 9]: Sensitive (Antimicrobial wells with pathogen load detected below the control wells (typically >2 cycle thresholds later) may be reported as Sensitive)
Ct ([1]; K. pneumoniae, clinical sample of r121-r135, Ct Control Avg 24.272): 34.466
Molecular Antibiotic Susceptibility Result [1, 10]: Sensitive (Antimicrobial wells with pathogen load detected below the control wells (typically >2 cycle thresholds later) may be reported as Sensitive)
Molecular Antibiotic Susceptibility Result [1, 11]: Sensitive (Antimicrobial wells with pathogen load detected below the control wells (typically >2 cycle thresholds later) may be reported as Sensitive)
Ct ([1]; M. morganii, clinical sample of r70-r84, Ct Control Avg 27.053): 37.67
Molecular Antibiotic Susceptibility Result [1, 12]: Sensitive (Antimicrobial wells with pathogen load detected below the control wells (typically >2 cycle thresholds later) may be reported as Sensitive)
Ct ([1]; P. mirabilis, clinical sample of r25-r39, Ct Control Avg 26.064): 33.029
Molecular Antibiotic Susceptibility Result [1, 13]: Sensitive (Antimicrobial wells with pathogen load detected below the control wells (typically >2 cycle thresholds later) may be reported as Sensitive)
Ct ([1]; P. mirabilis, clinical sample of r40-r54, Ct Control Avg 26.987): 33.384
Molecular Antibiotic Susceptibility Result [1, 14]: Resistant
Ct ([1]; S. aureus, clinical sample of r85-r92, Ct Control Avg 24.32): 19.106
Molecular Antibiotic Susceptibility Result [2, 3]: Resistant
Ct ([2]; E. coli, clinical sample of r10-r24, Ct control avg 12.97): 12.289
Molecular Antibiotic Susceptibility Result [2, 4]: Sensitive (Antimicrobial wells with pathogen load detected below the control wells (typically >2 cycle thresholds later) may be reported as Sensitive)
Ct ([2]; E. coli, clinical sample of r158-r172, Ct control avg 12.894): 29.603
Molecular Antibiotic Susceptibility Result [2, 5]: Sensitive (Antimicrobial wells with pathogen load detected below the control wells (typically >2 cycle thresholds later) may be reported as Sensitive)
Ct ([2]; E. faecalis, clinical sample of r93-r99, Ct control avg 22.011): 33.342
Ct ([2]; E. faecalis, clinical sample of r100-r106, Ct control avg 21.027): 34.507
Ct ([2]; E. faecalis, clinical sample of r107-r113, Ct control avg 20.529): 28.107
Molecular Antibiotic Susceptibility Result [2, 6]: Sensitive (Antimicrobial wells with pathogen load detected below the control wells (typically >2 cycle thresholds later) may be reported as Sensitive)
Ct ([2]; E. faecalis, clinical sample of r114-r120, Ct control avg 20.909): 30.072
Molecular Antibiotic Susceptibility Result [2, 7]: Sensitive (Antimicrobial wells with pathogen load detected below the control wells (typically >2 cycle thresholds later) may be reported as Sensitive)
Ct ([2]; E. faecalis, clinical sample of r151-r157, Ct control avg 18.551): 35.719
Molecular Antibiotic Susceptibility Result [2, 8]: Sensitive (Antimicrobial wells with pathogen load detected below the control wells (typically >2 cycle thresholds later) may be reported as Sensitive)
Ct ([2]; K. aerogenes, clinical sample of r136-r150, Ct control avg 13.854): 33.354
Molecular Antibiotic Susceptibility Result [2, 9]: Sensitive (Antimicrobial wells with pathogen load detected below the control wells (typically >2 cycle thresholds later) may be reported as Sensitive)
Ct ([2]; K. pneumoniae, clinical sample of r121-r135, Ct control avg […]): 32.085
Molecular Antibiotic Susceptibility Result [2, 10]: Sensitive (Antimicrobial wells with pathogen load detected below the control wells (typically >2 cycle thresholds later) may be reported as Sensitive)
Molecular Antibiotic Susceptibility Result [2, 11]: Sensitive (Antimicrobial wells with pathogen load detected below the control wells (typically >2 cycle thresholds later) may be reported as Sensitive)
Ct ([2]; M. morganii, clinical sample of r70-r84, Ct control avg 11.677): 29.614
Molecular Antibiotic Susceptibility Result [2, 12]: Sensitive (Antimicrobial wells with pathogen load detected below the control wells (typically >2 cycle thresholds later) may be reported as Sensitive)
Ct ([2]; P. mirabilis, clinical sample of r25-r39, Ct control avg 11.801): 25.775
Molecular Antibiotic Susceptibility Result [2, 13]: Sensitive (Antimicrobial wells with pathogen load detected below the control wells (typically >2 cycle thresholds later) may be reported as Sensitive)
Ct ([2]; P. mirabilis, clinical sample of r40-r54, Ct control avg 10.06): 30.018
Molecular Antibiotic Susceptibility Result [2, 14]: Resistant
Ct ([2]; S. aureus, clinical sample of r85-r92, Ct control avg 20.309): 16.32
